Molecular target: T1, ROCK1 (Homo sapiens, UniProt Q13464)
T1 construct: purchased Thermo Fisher Scientific (Life Technologies) SelectScreen
Test: SelectScreen Z'LYTE
Assay type: biochemical
In short: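 NU5455 was profiled across the SelectScreen Broad panel of kinase activity and binding assays. Z'LYTE reactions such as CSF1R ran at apparent Km ATP, while the Adapta CAMK1 assay used ATP listed as 10. Values are given as percent.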

T1 sequence (Q13464 whole entry): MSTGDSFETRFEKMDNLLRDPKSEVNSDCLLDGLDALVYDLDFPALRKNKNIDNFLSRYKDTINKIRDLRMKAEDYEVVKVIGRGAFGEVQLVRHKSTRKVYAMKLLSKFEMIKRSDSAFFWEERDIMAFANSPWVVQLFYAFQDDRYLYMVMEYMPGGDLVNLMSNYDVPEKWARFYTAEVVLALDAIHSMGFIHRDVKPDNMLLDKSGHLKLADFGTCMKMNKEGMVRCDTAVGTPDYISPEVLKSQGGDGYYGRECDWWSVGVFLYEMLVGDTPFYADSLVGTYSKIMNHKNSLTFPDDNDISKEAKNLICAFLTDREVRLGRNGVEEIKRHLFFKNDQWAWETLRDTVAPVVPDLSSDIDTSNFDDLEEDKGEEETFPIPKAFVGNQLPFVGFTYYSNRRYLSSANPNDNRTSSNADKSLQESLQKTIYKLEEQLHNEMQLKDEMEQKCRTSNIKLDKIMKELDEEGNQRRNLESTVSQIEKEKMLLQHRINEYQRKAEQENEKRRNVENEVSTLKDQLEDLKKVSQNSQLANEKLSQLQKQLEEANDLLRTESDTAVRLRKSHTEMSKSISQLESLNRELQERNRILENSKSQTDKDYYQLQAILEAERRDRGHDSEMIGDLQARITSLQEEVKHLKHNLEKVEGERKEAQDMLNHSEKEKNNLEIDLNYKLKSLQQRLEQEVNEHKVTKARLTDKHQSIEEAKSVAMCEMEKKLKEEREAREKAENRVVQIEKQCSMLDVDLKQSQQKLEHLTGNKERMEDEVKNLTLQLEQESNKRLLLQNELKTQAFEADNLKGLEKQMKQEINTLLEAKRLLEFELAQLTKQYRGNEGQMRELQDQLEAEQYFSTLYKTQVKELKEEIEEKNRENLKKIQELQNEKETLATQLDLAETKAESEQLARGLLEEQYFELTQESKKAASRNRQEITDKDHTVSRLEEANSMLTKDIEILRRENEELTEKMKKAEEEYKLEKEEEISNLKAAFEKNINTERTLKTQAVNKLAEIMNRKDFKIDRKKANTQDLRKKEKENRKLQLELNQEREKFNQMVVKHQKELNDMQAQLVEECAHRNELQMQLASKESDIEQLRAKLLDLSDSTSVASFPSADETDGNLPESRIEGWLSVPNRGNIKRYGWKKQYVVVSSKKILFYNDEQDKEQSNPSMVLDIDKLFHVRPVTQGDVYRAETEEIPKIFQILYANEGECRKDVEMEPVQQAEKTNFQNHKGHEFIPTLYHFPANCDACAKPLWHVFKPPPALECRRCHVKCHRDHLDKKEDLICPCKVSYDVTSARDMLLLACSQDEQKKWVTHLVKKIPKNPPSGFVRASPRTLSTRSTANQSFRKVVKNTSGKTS

Compound: CN(C(=O)CN1CCOCC1)c1ccc2sc3c(-c4cccc5c(=O)cc(N6CC7CCC(C6)O7)oc45)cccc3c2c1 [NU5455]
- inhibition at 1 µM: -9.5%

— paper PMC6934184, “Selective DNA-PKcs inhibition extends the therapeutic index of localized radiotherapy and chemotherapy” (The Journal of Clinical Investigation, 2019)
